From patent US20250129078A1, “ERBB2 INHIBITORS” (Cogent Biosciences, Inc., priority 2023, published 2025)
Structures can show the parent of a compound that is named as a salt. Values belong to the molecule of their own block, whether it stands above or below them.

Tests used:
EGFR WT = EGFR WT (Homo sapiens (Human), UniProt P00533); test: ErbB enzyme assay (CisBio HTRF-KinEASE-TK), EGFR WT; type: biochemical; settings: ATP at Km (25 μM), 1 h incubation
Procedure, shortened: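 IC50 comes from a 4-parameter fit where the curve crosses 50 percent of control, using the 655/620 nm time-resolved fluorescence ratio with DMSO-only and pre-quenched references. Kinase reactions ran 1 h at ambient temperature before Sa-XL665/cryptate-antibody detection (1 h).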

ErbB2 V777L = ErbB2 V777L (Homo sapiens (Human), UniProt P04626, V777L); test: ErbB enzyme assay (CisBio HTRF-KinEASE-TK), ErbB2 V777L; type: biochemical
Chain of ErbB2 V777L (P04626 23-1255 V777L): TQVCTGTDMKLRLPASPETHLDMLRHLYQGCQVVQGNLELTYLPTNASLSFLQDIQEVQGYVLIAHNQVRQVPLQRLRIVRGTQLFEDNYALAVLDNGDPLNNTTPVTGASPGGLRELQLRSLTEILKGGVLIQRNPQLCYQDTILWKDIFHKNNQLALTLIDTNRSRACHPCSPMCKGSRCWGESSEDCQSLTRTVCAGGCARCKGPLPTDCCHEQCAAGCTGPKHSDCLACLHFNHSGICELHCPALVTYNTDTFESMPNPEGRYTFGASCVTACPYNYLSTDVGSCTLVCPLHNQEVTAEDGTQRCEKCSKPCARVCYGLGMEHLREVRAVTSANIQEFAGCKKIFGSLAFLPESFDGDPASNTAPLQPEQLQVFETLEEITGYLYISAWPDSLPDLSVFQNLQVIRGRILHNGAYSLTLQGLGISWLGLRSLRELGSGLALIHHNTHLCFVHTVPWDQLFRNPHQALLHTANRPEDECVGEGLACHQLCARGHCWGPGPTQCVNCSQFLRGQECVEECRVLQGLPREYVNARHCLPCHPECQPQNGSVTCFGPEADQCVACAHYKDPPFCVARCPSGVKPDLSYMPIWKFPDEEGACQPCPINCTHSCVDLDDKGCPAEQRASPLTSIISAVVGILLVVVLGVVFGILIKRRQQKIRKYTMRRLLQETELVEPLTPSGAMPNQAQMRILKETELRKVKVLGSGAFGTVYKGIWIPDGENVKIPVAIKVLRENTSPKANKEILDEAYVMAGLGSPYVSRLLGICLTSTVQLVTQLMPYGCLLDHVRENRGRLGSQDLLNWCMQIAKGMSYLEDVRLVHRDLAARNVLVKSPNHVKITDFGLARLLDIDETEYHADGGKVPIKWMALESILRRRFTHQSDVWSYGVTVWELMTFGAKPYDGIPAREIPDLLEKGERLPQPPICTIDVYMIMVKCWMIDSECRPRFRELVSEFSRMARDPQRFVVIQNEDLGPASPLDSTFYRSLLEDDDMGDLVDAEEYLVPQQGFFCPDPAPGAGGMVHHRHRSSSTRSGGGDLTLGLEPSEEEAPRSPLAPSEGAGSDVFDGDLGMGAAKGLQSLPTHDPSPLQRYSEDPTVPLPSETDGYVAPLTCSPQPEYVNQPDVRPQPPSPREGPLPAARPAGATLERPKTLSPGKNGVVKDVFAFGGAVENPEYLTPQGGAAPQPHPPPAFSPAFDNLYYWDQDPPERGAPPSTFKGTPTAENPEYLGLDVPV
Method: In vitro enzyme assays based on CisBio HTRF-KinEASE-TK technology were used to determine compound potencies. […] After another 1 h incubation at ambient temperature, the extent of substrate phosphorylation was determined using a PerkinElmer EnVision multimode plate reader via time-resolved fluorescence dual wavelength detection. The percent of control (POC) was calculated using the ratio of emission at […] to the emission at 620 nm. One hundred POC was determined using DMSO only controls (no test compounds present) and zero POC was determined using pre-quenched controls reactions. A 4-parameter logistic equation was fit to the POC values as a function of the test compound concentration and the IC50 value was determined as the point where the curve crossed 50 POC.

Chain of EGFR WT (P00533 25-1210): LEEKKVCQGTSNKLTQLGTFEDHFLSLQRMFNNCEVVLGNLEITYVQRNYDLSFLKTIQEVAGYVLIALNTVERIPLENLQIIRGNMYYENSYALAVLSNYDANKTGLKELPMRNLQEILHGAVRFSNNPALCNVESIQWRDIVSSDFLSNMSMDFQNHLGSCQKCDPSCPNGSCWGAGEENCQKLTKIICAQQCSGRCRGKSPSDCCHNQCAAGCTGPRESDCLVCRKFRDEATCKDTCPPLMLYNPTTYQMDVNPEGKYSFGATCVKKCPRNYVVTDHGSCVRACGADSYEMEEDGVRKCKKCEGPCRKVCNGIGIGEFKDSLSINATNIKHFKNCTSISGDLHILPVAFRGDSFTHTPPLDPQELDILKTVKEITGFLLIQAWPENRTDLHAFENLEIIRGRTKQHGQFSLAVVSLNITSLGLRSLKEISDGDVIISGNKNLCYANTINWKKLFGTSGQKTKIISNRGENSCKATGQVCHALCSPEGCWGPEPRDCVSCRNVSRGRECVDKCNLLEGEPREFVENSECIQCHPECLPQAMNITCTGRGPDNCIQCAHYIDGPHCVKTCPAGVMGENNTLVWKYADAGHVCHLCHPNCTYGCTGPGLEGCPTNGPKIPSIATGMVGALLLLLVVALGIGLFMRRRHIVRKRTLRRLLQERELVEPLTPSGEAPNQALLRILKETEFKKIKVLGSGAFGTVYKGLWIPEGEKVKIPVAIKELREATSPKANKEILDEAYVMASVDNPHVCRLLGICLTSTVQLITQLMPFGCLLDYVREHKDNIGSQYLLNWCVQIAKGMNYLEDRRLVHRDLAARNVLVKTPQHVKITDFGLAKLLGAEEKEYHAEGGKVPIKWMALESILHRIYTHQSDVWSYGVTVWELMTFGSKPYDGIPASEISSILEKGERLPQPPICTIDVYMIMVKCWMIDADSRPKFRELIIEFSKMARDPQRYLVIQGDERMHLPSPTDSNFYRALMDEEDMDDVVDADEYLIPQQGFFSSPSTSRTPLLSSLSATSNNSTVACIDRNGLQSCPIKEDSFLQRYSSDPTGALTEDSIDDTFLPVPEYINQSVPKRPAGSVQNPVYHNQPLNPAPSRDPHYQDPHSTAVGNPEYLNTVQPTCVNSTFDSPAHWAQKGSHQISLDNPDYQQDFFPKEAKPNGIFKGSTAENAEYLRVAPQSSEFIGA

SMILES: C=CC(=O)NC1CCN(c2ccc3ncnc(Nc4ccc(Oc5ccc6c(c5)nnn6C)c(C)c4F)c3n2)CC1 [Compound 272, N-(1-(4-((2-fluoro-3-methyl-4-((1-methyl-1H-benzo[d][1,2,3]triazol-5-yl)oxy)phenyl)amino)pyrido[3,2-d]pyrimidin-6-yl)piperidin-4-yl)acrylamide]
IC50 (EGFR WT): 100 to 500 nM
IC50 (ErbB2 V777L): 100 to 500 nM

SMILES: C=CC(=O)N1CCN(c2ncc3ncnc(Nc4ccc(Oc5cc6nnn(C)c6c(F)c5C)c(C)c4)c3n2)C[C@H]1C [Compound 174, (R)-1-(4-(8-((4-((7-fluoro-1,6-dimethyl-1H-benzo[d][1,2,3]triazol-5-yl)oxy)-3-methylphenyl)amino)pyrimido[5,4-d]pyrimidin-2-yl)-2-methylpiperazin-1-yl)prop-2-en-1-one]
IC50 (EGFR WT): ≥ 1000 nM
IC50 (ErbB2 V777L): 100 to 500 nM

SMILES: C=CC(=O)N1CCN(c2ccc3ncnc(Nc4cc(F)c(Oc5ccc6c(c5)nnn6C)c(C)c4F)c3n2)CC1(C)C [Compound 327, 1-(4-(4-((2,5-difluoro-3-methyl-4-((1-methyl-1H-benzo[d][1,2,3]triazol-5-yl)oxy)phenyl)amino)pyrido[3,2-d]pyrimidin-6-yl)-2,2-dimethylpiperazin-1-yl)prop-2-en-1-one]
IC50 (EGFR WT): 100 to 500 nM
IC50 (ErbB2 V777L): 100 to 500 nM

SMILES: C=CC(=O)N1CC2CC(C1)N2c1ccc2ncnc(Nc3ccc(Oc4ccc5c(c4)nnn5C)c(C)c3)c2n1 [Compound 96, 1-(6-(4-((3-methyl-4-((1-methyl-1H-benzo[d][1,2,3]triazol-5-yl)oxy)phenyl)amino)pyrido[3,2-d]pyrimidin-6-yl)-3,6-diazabicyclo[3.1.1]heptan-3-yl)prop-2-en-1-one]
IC50 (EGFR WT): 100 to 500 nM
IC50 (ErbB2 V777L): 100 to 500 nM

SMILES: C=CC(=O)N1C2CCCC1CC(c1ccc3ncnc(Nc4ccc(Oc5ccc6c(c5)nnn6C)c(C)c4)c3n1)C2 (centres unmarked) [Compound 395, 1-(3-(4-((3-methyl-4-((1-methyl-1H-benzo[d][1,2,3]triazol-5-yl)oxy)phenyl)amino)pyrido[3,2-d]pyrimidin-6-yl)-9-azabicyclo[3.3.1]nonan-9-yl)prop-2-en-1-one trifluoroacetate]
IC50 (EGFR WT): 100 to 500 nM
IC50 (ErbB2 V777L): 100 to 500 nM

SMILES: C=CC(=O)N1CCN(c2ccc3ncnc(Nc4c(OC)cc(Oc5ccc6c(c5)nnn6C)c(C)c4F)c3n2)CC1 [Compound 251, 1-(4-(4-((2-fluoro-6-methoxy-3-methyl-4-((1-methyl-1H-benzo[d][1,2,3]triazol-5-yl)oxy)phenyl)amino)pyrido[3,2-d]pyrimidin-6-yl)piperazin-1-yl)prop-2-en-1-one]
IC50 (EGFR WT): 100 to 500 nM
IC50 (ErbB2 V777L): 100 to 500 nM

SMILES: C=CC(=O)N1CCN(c2ncc3ncnc(Nc4ccc(Oc5ccc6c(c5)nnn6C)c(C)c4)c3n2)C[C@H]1C [Compound 1, (R)-1-(2-methyl-4-(8-((3-methyl-4-((1-methyl-1H-benzo[d][1,2,3]triazol-5-yl)oxy)phenyl)amino)pyrimido[5,4-d]pyrimidin-2-yl)piperazin-1-yl)prop-2-en-1-one]
IC50 (EGFR WT): 100 to 500 nM
IC50 (ErbB2 V777L): 50 to 100 nM

SMILES: C=CC(=O)N1CCN(c2ccc3ncnc(Nc4ccc(Oc5ccc6c(c5)nnn6C)c(C)c4)c3n2)C[C@@H]1C1CC1 [Compound 250, (S)-1-(2-cyclopropyl-4-(4-((3-methyl-4-((1-methyl-1H-benzo[d][1,2,3]triazol-5-yl)oxy)phenyl)amino)pyrido[3,2-d]pyrimidin-6-yl)piperazin-1-yl)prop-2-en-1-one]
IC50 (EGFR WT): 500 to 1000 nM
IC50 (ErbB2 V777L): 100 to 500 nM

SMILES: C=CC(=O)N1CC2CN(c3ncc4ncnc(Nc5ccc(Oc6ccc7c(c6)nnn7C)c(C)c5)c4n3)CC2C1 (centres unmarked) [Compound 27, 1-(5-(8-((3-methyl-4-((1-methyl-1H-benzo[d][1,2,3]triazol-5-yl)oxy)phenyl)amino)pyrimido[5,4-d]pyrimidin-2-yl)hexahydropyrrolo[3,4-c]pyrrol-2(1H)-y1)prop-2-en-1-one]
IC50 (EGFR WT): ≥ 1000 nM
IC50 (ErbB2 V777L): 100 to 500 nM

SMILES: C=CC(=O)N1CCN(c2ccc3ncnc(Nc4ccc(Oc5ccc6c(c5)nnn6C)c(C)c4F)c3n2)C[C@H]1C(C)C [Compound 259, (R)-1-(4-(4-((2-fluoro-3-methyl-4-((1-methyl-1H-benzo[d][1,2,3]triazol-5-yl)oxy)phenyl)amino)pyrido[3,2-d]pyrimidin-6-yl)-2-isopropylpiperazin-1-yl)prop-2-en-1-one]
IC50 (EGFR WT): ≥ 1000 nM
IC50 (ErbB2 V777L): 500 to 1000 nM

SMILES: C=CC(=O)N1CCN(c2ncc3ncnc(Nc4ccc(Oc5ccc6c(c5)nnn6C)c(C)c4)c3n2)[C@@H]2CC[C@H]21 [Compound 189, 1-((1R,6R)-5-(8-((3-methyl-4-((1-methyl-1H-benzo[d][1,2,3]triazol-5-yl)oxy)phenyl)amino)pyrimido[5,4-d]pyrimidin-2-y1)-2,5-diazabicyclo[4.2.0]octan-2-yl)prop-2-en-1-one]
IC50 (EGFR WT): 500 to 1000 nM
IC50 (ErbB2 V777L): 100 to 500 nM

SMILES: C=CC(=O)N1CCN(c2ccc3ncnc(Nc4ccc(Oc5ccc6c(c5)nnn6C)c(C)c4F)c3n2)C[C@@H]1C1CC1 [Compound 271, (S)-1-(2-cyclopropyl-4-(4-((2-fluoro-3-methyl-4-((1-methyl-1H-benzo[d][1,2,3]triazol-5-yl)oxy)phenyl)amino)pyrido[3,2-d]pyrimidin-6-yl)piperazin-1-yl)prop-2-en-1-one]
IC50 (EGFR WT): ≥ 1000 nM
IC50 (ErbB2 V777L): 500 to 1000 nM

SMILES: C=CC(=O)N1CCN(c2ccc3ncnc(Nc4ccc(Oc5ccc6c(c5)nnn6C)c(C)c4)c3n2)CC[C@H]1C [Compound 356, (R)-1-(7-methyl-4-(4-((3-methyl-4-((1-methyl-1H-benzo[d][1,2,3]triazol-5-yl)oxy)phenyl)amino)pyrido[3,2-d]pyrimidin-6-yl)-1,4-diazepan-1-yl)prop-2-en-1-one]
IC50 (EGFR WT): ≥ 1000 nM
IC50 (ErbB2 V777L): 500 to 1000 nM

Results, then the molecule that gave them:

IC50 (EGFR WT): 100 to 500 nM
IC50 (ErbB2 V777L): 100 to 500 nM
SMILES: C=CC(=O)N1CCN(c2ccc3ncnc(Nc4c(OC)cc(Oc5ccc6c(c5)nnn6C)c(C)c4F)c3n2)C[C@H]1C [Compound 256, (R)-1-(4-(4-((2-fluoro-6-methoxy-3-methyl-4-((1-methyl-1H-benzo[d][1,2,3]triazol-5-yl)oxy)phenyl)amino)pyrido[3,2-d]pyrimidin-6-yl)-2-methylpiperazin-1-yl)prop-2-en-1-one]

IC50 (EGFR WT): 100 to 500 nM
IC50 (ErbB2 V777L): 500 to 1000 nM
SMILES: C=CC(=O)N[C@@H]1CCCCN(c2ccc3ncnc(Nc4ccc(Oc5ccc6c(c5)nnn6C)c(C)c4F)c3n2)C1 [Compound 289, (R)-N-(1-(4-((2-fluoro-3-methyl-4-((1-methyl-1H-benzo[d][1,2,3]triazol-5-yl)oxy)phenyl)amino)pyrido[3,2-d]pyrimidin-6-yl)azepan-3-yl)acrylamide]

IC50 (EGFR WT): 100 to 500 nM
IC50 (ErbB2 V777L): 50 to 100 nM
SMILES: C=CC(=O)N[C@]1(C)CCN(c2ccc3ncnc(Nc4ccc(Oc5ccc6c(c5)nnn6C)c(C)c4F)c3n2)C1 [Compound 270, (R)-N-(1-(4-((2-fluoro-3-methyl-4-((1-methyl-1H-benzo[d][1,2,3]triazol-5-yl)oxy)phenyl)amino)pyrido[3,2-d]pyrimidin-6-yl)-3-methylpyrrolidin-3-yl)acrylamide]

IC50 (EGFR WT): 500 to 1000 nM
IC50 (ErbB2 V777L): 500 to 1000 nM
SMILES: C=CC(=O)N1[C@@H]2CC[C@H]1C[C@@H](Oc1ncc3ncnc(Nc4ccc(Oc5ccc6c(c5)ncn6C)c(C)c4)c3n1)C2 [Compound 391, 1-((1R,3r,5S)-3-((8-((3-methyl-4-((1-methyl-1H-benzo[d]imidazol-5-yl)oxy)phenyl)amino)pyrimido[5,4-d]pyrimidin-2-yl)oxy)-8-azabicyclo[3.2.1]octan-8-yl)prop-2-en-1-one]

IC50 (EGFR WT): 100 to 500 nM
IC50 (ErbB2 V777L): 50 to 100 nM
SMILES: C=CC(=O)N1C2CC1CN(c1ncc3ncnc(Nc4ccc(Oc5ccc6c(c5)nnn6C)c(C)c4)c3n1)C2 [Compound 60, 1-(3-(8-((3-methyl-4-((1-methyl-1H-benzo[d][1,2,3]triazol-5-yl)oxy)phenyl)amino)pyrimido[5,4-d]pyrimidin-2-yl)-3,6-diazabicyclo[3.1.1]heptan-6-yl)prop-2-en-1-one]

IC50 (EGFR WT): 100 to 500 nM
IC50 (ErbB2 V777L): 50 to 100 nM
SMILES: C=CC(=O)N1CCN(c2ccc3ncnc(Nc4ccc(Oc5ccc6c(c5)nnn6C)c(C)c4)c3n2)C[C@H]1C1CC1 [Compound 335, (R)-1-(2-cyclopropyl-4-(4-((3-methyl-4-((1-methyl-1H-benzo[d][1,2,3]triazol-5-yl)oxy)phenyl)amino)pyrido[3,2-d]pyrimidin-6-yl)piperazin-1-yl)prop-2-en-1-one]

IC50 (EGFR WT): 500 to 1000 nM
IC50 (ErbB2 V777L): 50 to 100 nM
SMILES: C=CC(=O)N1CCN(c2ccc3ncnc(Nc4ccc(Oc5cc6ncn(C)c6nc5C)c(C)c4)c3n2)C[C@H]1C [Compound 247, (R)-1-(4-(4-((4-((3,5-dimethyl-3H-imidazo[4,5-b]pyridin-6-yl)oxy)-3-methylphenyl)amino)pyrido[3,2-d]pyrimidin-6-yl)-2-methylpiperazin-1-yl)prop-2-en-1-one]

IC50 (EGFR WT): 100 to 500 nM
IC50 (ErbB2 V777L): 100 to 500 nM
SMILES: C=CC(=O)N1CCN(c2ccc3ncnc(Nc4cc(C)c(Oc5ccc6c(c5)nnn6C)cc4OC(F)(F)F)c3n2)CC1 [Compound 312, 1-(4-(4-((5-methyl-4-((1-methyl-1H-benzo[d][1,2,3]triazol-5-yl)oxy)-2-(trifluoromethoxy)phenyl)amino)py-rido[3,2-d]pyrimidin-6-yl)piperazin-1-yl)prop-2-en-1-one]

IC50 (EGFR WT): 500 to 1000 nM
IC50 (ErbB2 V777L): 100 to 500 nM
SMILES: C=CC(=O)N1CCN(c2ncc3ncnc(Nc4ccc(Oc5ccc6c(c5)nnn6C)c(C)c4)c3c2F)CC1 [Compound 102, 1-(4-(5-fluoro-4-((3-methyl-4-((1-methyl-1H-benzo[d][1,2,3]triazol-5-yl)oxy)phenyl)amino)pyrido[3,4-d]pyrimidin-6-yl)piperazin-1-yl)prop-2-en-1-one]
